These are literature values, as cited in PMC7728372, “Synthesis and Biological Evaluation of Amino Chalcone Derivatives as Antiproliferative Agents” (Molecules, 2020).

In general, IC50 refers to the midpoint of a concentration-inhibition curve.

The subject of the series is SKVO3 cells. Also on record: method as in PMID 27213819. The following applies: cited from earlier work.

Molecules are shown by their SMILES.

In the case of `COc1ccc(N(C)c2cc(=O)oc3ccccc23)cc1NC(=O)CCCCl` [Compound 9], the IC50 is 3.5 nM.
